{"source": "patent US20120252737A1", "about": "“Methods for Diagnosing and Treating Cancer” (Massachusetts Institute of Technology, priority 2009, published 2012)", "key": {"MK2": {"test_system": "MK2", "assay": "Subcellular localization of MK2 (live-cell imaging of GFP.MK2, immunofluorescence)", "assay_type": "cell-based", "conditions": "U2OS cells", "method": "In FIG. 2A, GFP, GFP.MK2, and GFP.Chk1 fusion constructs were expressed in U2OS cells. Following treatment with […] doxorubicin, the same set of cells was imaged using real-time imaging. […] Stably transfected U2OS cells were either mock-treated or exposed to […] doxorubicin as indicated. Following treatment, cells were lysed, and proteins were separated on SDS-PAGE and visualized by immunoblot. MK2 activity was monitored with phospho-specific antibodies detecting p38-mediated activation/phosphorylation of Thr-334, located between the kinase domain and the C-terminal regulatory domain. […] Cells were treated as in FIG. 2B, and ATR-dependent phosphorylation on Ser-345 in the C-terminal regulatory region was monitored using immunoblotting. […] Nuclear and cytoplasmic fractions were isolated using hypotonic lysis, and MK2 and Chk1 protein levels were determined using immunoblotting. Staining for tubulin (a cytoplasmic marker) and histone H1 (a nuclear marker) was performed to assess the purity of the isolated fractions. Indirect immunofluorescence staining was performed to verify the subcellular localization of endogenous MK2 and Chk1 in response to doxorubicin. Hoechst stain was used as a counterstain to provide a nuclear reference point. […] U2OS cells were either left untreated or incubated with […] doxorubicin for 6 hours, and the subcellular localization of MK2 was assessed by immunofluorescence as in FIG. 2E. […] Sections from human squamous cell head and neck cancer (T) and the surrounding stroma (S) were stained with antibodies against total MK2 (left panel), the activated/phosphorylated form of MK2 (middle panel), and its downstream substrate phospho-hsp27 (right panel).\nIn these experiments, retroviral gene delivery was used to obtain stable low-level expression of GFP chimeras of Chk1 and MK2 in U2OS cells, and localization was monitored in live cells before and after DNA damage over time.\nTo ensure that the visual behavior of GFP fusion proteins assayed in vivo reflected the subcellular localizations of endogenous Chk1 and MK2 kinases following DNA damage, a similar series of biochemical experiments were performed where the localization of endogenous activated Chk1 and MK2 was examined in cell lysates by nuclear and cytoplasmic fractionation. […] In addition, indirect immunofluoresence was used to directly monitor the subcellular localization of endogenous Chk1 and MK2 in situ (FIG. 2E)."}, "cdc25C": {"test_system": "cdc25C", "assay": "Live-cell imaging of GFP.cdc25C nuclear entry after doxorubicin", "assay_type": "cell-based", "set-up": "dose or concentration left out as unconfirmed", "method": "GFP.cdc25B/C-expressing cells were subsequently infected with lentiviruses expressing luciferase-, MK2-, or Chk1-specific shRNA; treated with […] doxorubicin for 1 hour; and GFP localization monitored by live-cell imaging. Control cells mounted a cell-cycle checkpoint response and resumed mitotic cell division after ˜30 hours with the production of two intact daughter cells (top panels and top panel in FIG. 8B). MK2-depleted cells initiated a checkpoint response, which collapsed after ˜24 hours, invariably followed by a catastrophic mitotic event (middle panels and FIG. 8B, middle panel). Chk1-depleted cells entered a premature, catastrophic mitotic event at ˜16 hours following doxorubicin (middle panels and FIG. 8B, middle panel). […] Data are shown as box and whisker plots and represent 18 independent experiments for each cell line. The time of the first appearance of a mitotic figure was recorded. Asterisk indicates statistical significance. Mean values are shown with error bars indicating standard deviation.\nAdditional experiments were performed to determine whether the MK2-dependent regulation of Gadd45a that was required for maintenance of late cell-cycle arrest after DNA damage was related to the MK2-dependent phosphorylation and inactivation of Cdc25B and C. […] A strong interaction between Gadd45a and p38 was observed (FIG. 7A). In an additional set of experiments, Gadd45a was depleted using RNAi. The data from these experiments show a loss of p38-dependent MK2 phosphorylation specifically at late times after DNA damage (FIGS. 7B and 7C). […] The cells were treated with low dose ([…]) doxorubicin for 30 minutes and the subcellular localization of cdc25B/C monitored in live cells by time-lapse fluorescence microscopy. […]"}}}
{"smiles": "COc1cccc2c1C(=O)c1c(O)c3c(c(O)c1C2=O)C[C@@](O)(C(=O)CO)C[C@@H]3O[C@H]1C[C@H](N)[C@H](O)[C@H](C)O1", "note": "[doxorubicin]", "values": [{"measurement": "MK2 translocation from the nucleus to the cytoplasm", "setting": "MK2", "value": "robust translocation from the nucleus to the cytoplasm"}, {"measurement": "time to relocalization of GFP-MK2 to the cytoplasm", "setting": "MK2; 10 mM doxorubicin, real-time imaging", "value": "≤ 1", "unit": "h"}, {"measurement": "mean onset of nuclear entry of Cdc25C", "setting": "cdc25C; Chk1-depleted cells", "value": "15.3 ± 4.5", "unit": "h"}, {"measurement": "mean appearance time of nuclear entry of Cdc25C", "setting": "cdc25C; MK2-depleted cells", "value": "22.4 ± 14.1", "unit": "h"}, {"measurement": "time of first nuclear appearance of cdc25C", "setting": "cdc25C; control (luciferase shRNA) cells", "value": "30.3 ± 3.7", "unit": "h"}]}
